The structures appear in SMILES notation.

One test concerns the target T1, human plasma renin (Homo sapiens, UniProt P00797).
T1 construct: from tissue; host or cells: human plasma
T1 sequence (P00797 67-406): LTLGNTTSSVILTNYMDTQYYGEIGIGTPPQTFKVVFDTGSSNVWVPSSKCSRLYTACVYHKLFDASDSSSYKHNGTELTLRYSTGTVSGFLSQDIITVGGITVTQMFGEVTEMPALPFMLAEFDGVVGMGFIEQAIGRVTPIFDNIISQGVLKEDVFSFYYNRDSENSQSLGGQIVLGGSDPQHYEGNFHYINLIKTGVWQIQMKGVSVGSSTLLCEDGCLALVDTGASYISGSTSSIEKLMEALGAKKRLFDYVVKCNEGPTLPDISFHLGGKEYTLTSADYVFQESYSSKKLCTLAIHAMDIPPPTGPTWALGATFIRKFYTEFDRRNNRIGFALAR
The test is described as follows: Renin inhibiting activities (human plasma, angiotensin I by radio immunoassay). The format is biochemical. The conditions noted are these: pH7.4, 37° C., one hour, read-out: IC50 (50 % inhibition concentrations), renin inhibiting activity. As for the experimental part: To 156 μl of a 0.2M sodium phosphate buffer solution (pH7.4), 40 μl of a solution mixture of 34 mM 8-hydroxyquinoline and 100 mM disodium ethylenediamine tetraacetate, 4 μl of dimethyl sulfoxide or a dimethyl sulfoxide solution of test compound and 200 μl of human plasma were added and reacted at 37° C. for one hour. Then, pepstatin was added thereto to terminate the reaction, and the amount of the resulting angiotension I was measured by radio immunoassay whereby the inhibiting activity was determined.
In the case of `CCCC[C@H](NC(=O)[C@H](Cc1cccc2ccccc12)CS(=O)(=O)CC(COC(C)=O)OC(C)=O)C(=O)N[C@@H](CC1CCCCC1)[C@@H](O)[C@@H](O)CN1CCOCC1` (mixture of isomers) [Example 1, (2S, 3R, 4S)-4-{L-N-[(2S)-3-[(2RS)-2,3-diacetoxypropyl]sulfonyl-2-(1-naphthylmethyl)propionyl]norleucyl}amino-5-cyclohexyl-1-morpholino-2,3-pentanediol], the IC50 is 2.5 nM.
In the case of `CCCC[C@H](NC(=O)[C@H](Cc1cccc2ccccc12)CS(=O)(=O)C1CCC(OC(C)=O)C1)C(=O)N[C@@H](CC1CCCCC1)[C@@H](O)[C@@H](O)CN1CCOCC1` (single isomer, unassigned) [Example 33 (having a high Rf value)], the IC50 was 2.2 nM.
Same read-out and setting: next, `CCCC[C@H](NC(=O)[C@H](Cc1cccc2ccccc12)CS(=O)(=O)C1CCC(OC(C)=O)C1)C(=O)N[C@@H](CC1CCCCC1)[C@@H](O)[C@@H](O)CN1CCOCC1` (single isomer, unassigned) [Example 33 (having a low Rf value)]: 1.1 nM.
On the same count and under the same terms, the result for `CCCC[C@H](NC(=O)[C@H](Cc1cccc2ccccc12)CS(=O)(=O)CC(COC(C)=O)OC)C(=O)N[C@@H](CC1CCCCC1)[C@@H](O)[C@@H](O)CN1CCOCC1` (single isomer, unassigned) [Example 39] reads 1.3 nM.
Take `CCCC[C@H](NC(=O)[C@H](Cc1cccc2ccccc12)CS(=O)(=O)CC(COC(C)=O)OC)C(=O)N[C@@H](CC1CCCCC1)[C@@H](O)[C@@H](O)CN1CCOCC1` (single isomer, unassigned) [Example 40]: the IC50 stood at 1 nM.
On the same count and under the same terms, the result for `CCCC[C@H](NC(=O)[C@H](Cc1cccc2ccccc12)CS(=O)(=O)CCOC(C)=O)C(=O)N[C@@H](CC1CCCCC1)[C@@H](O)[C@@H](O)CN1CCOCC1` [Example 3, (2S,3R,4S)-4{L-N-[(2S)-3-(2-acetoxyethyl)sulfonyl-2-(1-naphthylmethyl)propionyl]norleucyl)amino-5-cyclohexyl-1-morpholino-2,3-pentanediol] reads 3.1 nM.
On the same count and under the same terms, the result for `CCCC[C@H](NC(=O)[C@H](Cc1cccc2ccccc12)CS(=O)(=O)CCOC(=O)C(C)(C)C)C(=O)N[C@@H](CC1CCCCC1)[C@@H](O)[C@@H](O)CN1CCOCC1` [Example 4] reads 7.7 nM; that for `CCCC[C@H](NC(=O)[C@H](Cc1cccc2ccccc12)CS(=O)(=O)CCOC(=O)OCC)C(=O)N[C@@H](CC1CCCCC1)[C@@H](O)[C@@H](O)CN1CCOCC1` [Example 5, (2S,3R,4S)-4-{L-N-[(2S)-3-(2-ethoxycarbonyloxyethyl)sulfonyl-2-(1-naphthylmethyl)propionyl]norleucyl}amino-5-cyclohexyl-1-morpholino-2,3-pentanediol], 5 nM; that for `CCCC[C@H](NC(=O)[C@@H](CSCC(COC(C)=O)OC(C)=O)Cc1cccc2ccccc12)C(=O)N[C@@H](CC1CCCCC1)[C@@H](O)[C@@H](O)CN1CCOCC1` (stereo partly drawn) [Example 7, (2S,3R,4S)-4-{L-N-[(2S)-3-[(2RS)-2,3,-diacetoxypropyl]thio-2-(1-naphthylmethyl)propionyl]norleucyl}amino-5-cyclohexyl-1-morpholino-2,3-pentanediol], 2.8 nM.
Same read-out and setting: next, `CCCC[C@H](NC(=O)[C@H](Cc1cccc2ccccc12)CS(=O)(=O)CC(O)COC(C)=O)C(=O)N[C@@H](CC1CCCCC1)[C@@H](O)[C@@H](O)CN1CCOCC1` (stereo partly shown) [Example 11]: 6.3 nM; `CCCC[C@H](NC(=O)[C@@H](CSc1ccc(OC(C)=O)cc1)Cc1cccc2ccccc12)C(=O)N[C@@H](CC1CCCCC1)[C@@H](O)[C@@H](O)CN1CCOCC1` [Example 18, (2S,3R,4S)-4-{L-N-[(2S)-3-(4-acetoxyphenylthio)-2-(1-naphthylmethyl)propionyl]norleucyl}amino-5-cyclohexyl-1-morpholino-2,3-pentanediol]: 9.2 nM; `CC(=O)OCC(CS(=O)(=O)C[C@@H](Cc1cccc2ccccc12)C(=O)N[C@@H](Cc1c[nH]cn1)C(=O)N[C@@H](CC1CCCCC1)[C@@H](O)[C@@H](O)CN1CCOCC1)OC(C)=O` (stereo partly shown) [Example 23]: 4.8 nM.
Turning to `CC(=O)OCCS(=O)(=O)C[C@@H](Cc1cccc2ccccc12)C(=O)N[C@@H](Cc1c[nH]cn1)C(=O)N[C@@H](CC1CCCCC1)[C@@H](O)[C@@H](O)CN1CCOCC1` [Example 30], the IC50 was determined as 1.9 nM.
`CCCC[C@H](NC(=O)[C@@H](CSC1CCC(OC(C)=O)C1)Cc1cccc2ccccc12)C(=O)N[C@@H](CC1CCCCC1)[C@@H](O)[C@@H](O)CN1CCOCC1` (stereo partly drawn) [Example 34, (2S,3R,4S)-4-{L-N-[(2S)-3-(3-acetoxycyclopentyl)thio-2-(1-naphthylmethyl)propionyl]norleucyl}amino-5-cyclohexyl-1-morpholino-2,3-pentanediol]: the IC50 was 5.6 nM.
Same read-out and setting: the result for `CCCC[C@H](NC(=O)[C@H](Cc1cccc2ccccc12)CS(=O)(=O)C1CCCC1OC(C)=O)C(=O)N[C@@H](CC1CCCCC1)[C@@H](O)[C@@H](O)CN1CCOCC1` (stereo partly drawn) [Example 35, (2S,3R,4S)-4-{L-N-[(2S)-3-(2-acetoxycyclopentyl)sulfonyl-2-(1-naphthylmethyl)propionyl]norleucyl}amino-5-cyclohexyl-1-morpholino-2,3-pentanediol] reads 3.1 nM.
Turning to `CCCC[C@H](NC(=O)[C@H](Cc1cccc2ccccc12)CS(=O)(=O)C1CCC(OC(C)=O)C1OC(C)=O)C(=O)N[C@@H](CC1CCCCC1)[C@@H](O)[C@@H](O)CN1CCOCC1` (stereo partly drawn) [Example 36, (2S,3R,4S),4-{L-N-[(2S)-3-(2,3-diacetoxycyclopentyl)sulfonyl-2-(1-naphthylmethyl)propionyl]norleucyl}amino-5-cyclohexyl-1-morpholino-2,3-pentanediol], the IC50 came out at 1.9 nM.
Consider `CCCC[C@H](NC(=O)[C@H](Cc1cccc2ccccc12)CS(=O)(=O)C1C(OC(C)=O)CCC1OC(C)=O)C(=O)N[C@@H](CC1CCCCC1)[C@@H](O)[C@@H](O)CN1CCOCC1` (stereo partly drawn) [Example 37, (2S,3R,4S)-4-{L-N-[(2S)-3-(2,5-diacetoxycyclopentyl)sulfonyl-2-(1-naphthylmethyl)propionyl]norleucyl}amino-5-cyclohexyl-1-morpholino-2,3-pentanediol], for which the IC50 was 2.9 nM.
Regarding `CCCC[C@H](NC(=O)[C@H](Cc1cccc2ccccc12)CS(=O)(=O)CC(COC(C)=O)=NOC)C(=O)N[C@@H](CC1CCCCC1)[C@@H](O)[C@@H](O)CN1CCOCC1` [Example 41, (2S,3R,4S)-4-{L-N-[(2S)-3-(3-acetoxy-2-methoxyiminopropyl)sulfonyl-2-(1-naphthylmethyl)propionyl]norleucyl}amino-5-cyclohexyl-1-morpholino-2,3-pentanediol], the IC50 came to 0.79 nM.
Still for that read-out and setting: next, `CCCC[C@H](NC(=O)[C@H](Cc1cccc2ccccc12)CS(=O)(=O)CC(COC(C)=O)=NO)C(=O)N[C@@H](CC1CCCCC1)[C@@H](O)[C@@H](O)CN1CCOCC1` [Example 42, (2S,3R,4S)-4-{L-N-[(2S)-3-(3-acetoxy-2-hydroxyiminopropyl)sulfonyl-2-(1-naphthylmethyl)propionyl]norleucyl}amino-5-cyclohexyl-1-morpholino-2,3-pentanediol]: 6.1 nM; `COC(COC(C)=O)CS(=O)(=O)C[C@@H](Cc1cccc2ccccc12)C(=O)N[C@@H](Cc1cscn1)C(=O)N[C@@H](CC1CCCCC1)[C@@H](O)[C@@H](O)CN1CCOCC1` (stereo partly drawn) [Example 44, (2S,3R,4S)-4-{L,N-[(2S)-3-[(2RS)-3-acetoxy-2-methoxypropyl]sulfonyl-2-(1-naphthylmethyl)propionyl]-(4-thiazolyl)alanyl}amino-5-cyclohexyl-1-morpholino-2,3-pentanediol]: 1.8 nM; `CCCC[C@H](NC(=O)[C@H](Cc1cccc2ccccc12)CS(=O)(=O)CC(COC(C)=O)(OCC)OCC)C(=O)N[C@@H](CC1CCCCC1)[C@@H](O)[C@@H](O)CN1CCOCC1` [Example 48, (2S,3R,4S)-4-{L-N-[(2S)-3-(3-acetoxy-2,2-diethoxypropyl)sulfonyl-2-(1-naphthylmethyl)propionyl]norleucyl}amino-5-cyclohexyl-1-morpholino-2,3-pentanediol]: 3.9 nM.

The next test has as its system marmosets. The test is described as follows: Hypotensive activities in monkeys (furosemide-treated marmosets, oral administration). It counts as in vivo. The conditions noted are these: 30 mg/kg orally; three marmosets; furosemide 30 mg/kg pretreatment (high renin active state); FIG. 1. The procedure: The hypotensive activities were measured in accordance with a method disclosed in J. Cardiovascular Pharmacology, Vol. 7, (Suppl. 4) S58-61 (1985). Namely, 30 mg/kg of furosemide (diuretic) was intracutaneously injected to three marmosets i.e. small size monkeys to produce a high renin active state. To these marmosets, 30 mg/kg of the compound of Example 1 was orally administered, whereupon the hypotensive activities were measured.
Consider `CCCC[C@H](NC(=O)[C@H](Cc1cccc2ccccc12)CS(=O)(=O)CC(COC(C)=O)OC(C)=O)C(=O)N[C@@H](CC1CCCCC1)[C@@H](O)[C@@H](O)CN1CCOCC1` (mixture of isomers) [Example 1, (2S, 3R, 4S)-4-{L-N-[(2S)-3-[(2RS)-2,3-diacetoxypropyl]sulfonyl-2-(1-naphthylmethyl)propionyl]norleucyl}amino-5-cyclohexyl-1-morpholino-2,3-pentanediol], for which the hypotensive activities entry was “exhibits hypotensive activities by the oral administration”.
